This is an account of results in ChEMBL document CHEMBL5291721, “A preclinical secondary pharmacology resource illuminates target-adverse drug reaction associations of marketed drugs” (Nat Commun, 2023).

Test [1] addresses Gamma-aminobutyric acid receptor subunit alpha-1 (Rattus norvegicus, UniProt P62813).
The target in test [2] is T1, Androgen receptor (Homo sapiens, UniProt P10275).
T1 sequence (P10275 whole entry): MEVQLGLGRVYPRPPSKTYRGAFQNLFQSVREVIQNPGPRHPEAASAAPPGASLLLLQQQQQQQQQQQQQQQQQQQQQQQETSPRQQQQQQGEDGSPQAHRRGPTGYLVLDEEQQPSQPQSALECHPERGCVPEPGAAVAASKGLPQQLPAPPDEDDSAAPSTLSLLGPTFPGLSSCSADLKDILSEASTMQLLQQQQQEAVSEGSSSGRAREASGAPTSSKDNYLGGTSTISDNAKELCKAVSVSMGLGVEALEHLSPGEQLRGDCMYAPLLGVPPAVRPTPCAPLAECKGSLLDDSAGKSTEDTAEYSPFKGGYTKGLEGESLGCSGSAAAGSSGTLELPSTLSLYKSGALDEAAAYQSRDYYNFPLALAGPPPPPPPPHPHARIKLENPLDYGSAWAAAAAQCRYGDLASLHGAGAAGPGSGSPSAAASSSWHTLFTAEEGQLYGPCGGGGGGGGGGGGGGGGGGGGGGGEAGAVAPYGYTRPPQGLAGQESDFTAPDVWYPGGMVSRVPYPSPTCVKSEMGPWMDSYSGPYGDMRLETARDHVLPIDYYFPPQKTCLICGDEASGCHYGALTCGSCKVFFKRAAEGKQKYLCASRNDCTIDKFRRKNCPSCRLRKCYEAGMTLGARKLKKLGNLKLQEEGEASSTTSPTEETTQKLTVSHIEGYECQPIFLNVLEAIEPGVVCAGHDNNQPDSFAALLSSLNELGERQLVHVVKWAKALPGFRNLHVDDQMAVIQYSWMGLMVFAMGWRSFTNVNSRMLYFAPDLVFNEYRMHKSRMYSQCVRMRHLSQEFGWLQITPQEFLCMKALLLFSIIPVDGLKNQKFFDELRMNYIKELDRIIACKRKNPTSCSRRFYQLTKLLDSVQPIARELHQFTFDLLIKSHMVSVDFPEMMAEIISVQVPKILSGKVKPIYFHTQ

Test [3] has as its target cGMP-inhibited 3',5'-cyclic phosphodiesterase 3A (Homo sapiens, UniProt Q14432). It is filed as functional.
Test [4] has as its target T2, 5-hydroxytryptamine receptor 1A (Homo sapiens, UniProt P08908).
T2 sequence (P08908 whole entry): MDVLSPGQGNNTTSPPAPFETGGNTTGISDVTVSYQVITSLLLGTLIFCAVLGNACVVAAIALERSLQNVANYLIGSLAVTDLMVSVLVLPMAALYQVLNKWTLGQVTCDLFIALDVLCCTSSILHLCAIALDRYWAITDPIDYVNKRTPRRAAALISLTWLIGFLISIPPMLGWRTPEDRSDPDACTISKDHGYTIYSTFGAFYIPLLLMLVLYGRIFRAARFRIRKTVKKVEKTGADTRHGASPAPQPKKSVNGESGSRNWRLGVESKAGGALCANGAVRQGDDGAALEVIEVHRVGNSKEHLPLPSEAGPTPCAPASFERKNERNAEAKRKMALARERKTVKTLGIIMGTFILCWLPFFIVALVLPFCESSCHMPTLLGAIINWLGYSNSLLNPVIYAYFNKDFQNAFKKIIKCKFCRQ
The format is functional, cell-based.

Test [5] deals with Glutamate receptor ionotropic, NMDA 1 (Rattus norvegicus, UniProt P35439).
Test [6] has as its target Cannabinoid receptor 1 (Homo sapiens, UniProt P21554). The format is functional, cell-based.
In test [7] the target is Delta-type opioid receptor (Homo sapiens, UniProt P41143).
Chain of Delta-type opioid receptor (P41143 whole entry): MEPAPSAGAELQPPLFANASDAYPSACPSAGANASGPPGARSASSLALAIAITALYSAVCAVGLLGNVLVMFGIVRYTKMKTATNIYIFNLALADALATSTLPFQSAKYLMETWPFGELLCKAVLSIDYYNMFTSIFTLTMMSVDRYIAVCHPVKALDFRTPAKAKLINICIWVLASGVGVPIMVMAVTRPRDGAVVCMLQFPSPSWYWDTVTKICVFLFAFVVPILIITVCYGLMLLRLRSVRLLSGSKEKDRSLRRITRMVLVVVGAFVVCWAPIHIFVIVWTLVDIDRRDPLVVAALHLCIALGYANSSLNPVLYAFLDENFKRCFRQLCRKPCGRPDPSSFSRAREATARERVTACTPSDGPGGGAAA
Test [8] deals with Motilin receptor (Homo sapiens, UniProt O43193).
Chain of Motilin receptor (O43193 whole entry): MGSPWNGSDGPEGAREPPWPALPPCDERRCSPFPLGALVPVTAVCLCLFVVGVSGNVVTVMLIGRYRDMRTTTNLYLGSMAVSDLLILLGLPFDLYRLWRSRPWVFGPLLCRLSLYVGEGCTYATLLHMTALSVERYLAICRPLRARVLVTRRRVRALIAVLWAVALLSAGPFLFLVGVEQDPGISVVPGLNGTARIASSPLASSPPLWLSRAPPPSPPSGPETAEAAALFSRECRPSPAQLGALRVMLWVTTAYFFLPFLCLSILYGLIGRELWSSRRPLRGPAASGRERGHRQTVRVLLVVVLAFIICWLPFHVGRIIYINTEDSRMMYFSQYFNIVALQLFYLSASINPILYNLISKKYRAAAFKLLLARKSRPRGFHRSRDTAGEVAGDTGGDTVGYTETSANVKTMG
In test [9] the target is T3, Progesterone receptor (Homo sapiens, UniProt P06401).
T3 sequence (P06401 whole entry): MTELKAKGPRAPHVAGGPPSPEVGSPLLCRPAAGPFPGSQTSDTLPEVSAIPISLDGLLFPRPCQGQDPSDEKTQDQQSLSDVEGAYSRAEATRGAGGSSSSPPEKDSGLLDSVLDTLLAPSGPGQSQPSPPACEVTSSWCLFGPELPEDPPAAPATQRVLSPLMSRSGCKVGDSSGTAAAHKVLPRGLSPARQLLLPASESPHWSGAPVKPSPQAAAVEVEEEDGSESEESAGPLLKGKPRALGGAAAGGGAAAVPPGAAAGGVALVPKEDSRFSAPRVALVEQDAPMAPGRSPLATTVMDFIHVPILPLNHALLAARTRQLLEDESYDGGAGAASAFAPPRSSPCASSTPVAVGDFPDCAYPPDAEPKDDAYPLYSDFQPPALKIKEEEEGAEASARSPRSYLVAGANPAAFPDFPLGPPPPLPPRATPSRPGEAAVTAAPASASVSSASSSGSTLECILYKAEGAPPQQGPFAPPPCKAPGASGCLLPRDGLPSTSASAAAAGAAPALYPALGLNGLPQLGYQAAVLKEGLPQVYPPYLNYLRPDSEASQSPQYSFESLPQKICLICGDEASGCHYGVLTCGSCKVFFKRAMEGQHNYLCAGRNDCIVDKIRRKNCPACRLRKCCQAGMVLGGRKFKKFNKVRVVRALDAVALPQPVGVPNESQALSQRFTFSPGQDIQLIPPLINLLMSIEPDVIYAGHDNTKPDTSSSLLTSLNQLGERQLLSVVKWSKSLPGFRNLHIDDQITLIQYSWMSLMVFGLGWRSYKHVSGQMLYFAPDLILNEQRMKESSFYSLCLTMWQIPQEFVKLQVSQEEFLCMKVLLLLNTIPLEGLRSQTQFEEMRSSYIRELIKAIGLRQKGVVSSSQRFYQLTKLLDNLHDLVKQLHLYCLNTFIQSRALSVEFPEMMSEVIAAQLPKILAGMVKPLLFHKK
It is filed as functional.

By AC50 is commonly meant the concentration giving half of the maximal activity seen. High values mean activity only at high concentration, low ones activity at low concentration.
Also: assay procedure not described here.

Chain of cGMP-inhibited 3',5'-cyclic phosphodiesterase 3A (Q14432 whole entry): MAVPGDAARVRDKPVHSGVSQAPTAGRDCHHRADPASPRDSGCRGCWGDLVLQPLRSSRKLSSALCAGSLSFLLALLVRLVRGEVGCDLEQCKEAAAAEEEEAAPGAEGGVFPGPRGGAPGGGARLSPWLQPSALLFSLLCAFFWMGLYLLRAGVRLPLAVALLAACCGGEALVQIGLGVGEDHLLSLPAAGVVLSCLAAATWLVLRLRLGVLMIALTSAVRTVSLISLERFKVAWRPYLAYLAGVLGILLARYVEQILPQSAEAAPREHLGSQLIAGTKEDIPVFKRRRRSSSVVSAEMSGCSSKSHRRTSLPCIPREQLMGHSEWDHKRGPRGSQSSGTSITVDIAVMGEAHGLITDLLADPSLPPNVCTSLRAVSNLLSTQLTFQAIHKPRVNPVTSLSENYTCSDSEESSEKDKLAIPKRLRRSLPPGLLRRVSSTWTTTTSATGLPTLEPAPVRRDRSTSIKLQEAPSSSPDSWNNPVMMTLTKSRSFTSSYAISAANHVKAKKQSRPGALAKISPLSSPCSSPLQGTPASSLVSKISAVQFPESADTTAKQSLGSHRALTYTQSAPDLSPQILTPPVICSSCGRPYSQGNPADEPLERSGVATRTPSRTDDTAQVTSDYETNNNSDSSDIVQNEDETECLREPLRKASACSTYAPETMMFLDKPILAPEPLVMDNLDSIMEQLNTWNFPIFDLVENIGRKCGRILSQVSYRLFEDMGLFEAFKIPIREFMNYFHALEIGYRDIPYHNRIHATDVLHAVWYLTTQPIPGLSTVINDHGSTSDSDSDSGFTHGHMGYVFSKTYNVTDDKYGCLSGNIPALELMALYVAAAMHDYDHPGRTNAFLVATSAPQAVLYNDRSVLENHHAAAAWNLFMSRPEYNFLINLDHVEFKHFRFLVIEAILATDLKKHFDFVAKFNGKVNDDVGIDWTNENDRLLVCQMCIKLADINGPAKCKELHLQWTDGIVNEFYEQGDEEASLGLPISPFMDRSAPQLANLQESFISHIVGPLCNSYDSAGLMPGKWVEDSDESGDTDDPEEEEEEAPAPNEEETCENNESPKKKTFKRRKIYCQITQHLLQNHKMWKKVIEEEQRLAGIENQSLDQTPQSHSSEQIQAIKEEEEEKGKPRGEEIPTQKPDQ
Chain of Gamma-aminobutyric acid receptor subunit alpha-1 (P62813 whole entry): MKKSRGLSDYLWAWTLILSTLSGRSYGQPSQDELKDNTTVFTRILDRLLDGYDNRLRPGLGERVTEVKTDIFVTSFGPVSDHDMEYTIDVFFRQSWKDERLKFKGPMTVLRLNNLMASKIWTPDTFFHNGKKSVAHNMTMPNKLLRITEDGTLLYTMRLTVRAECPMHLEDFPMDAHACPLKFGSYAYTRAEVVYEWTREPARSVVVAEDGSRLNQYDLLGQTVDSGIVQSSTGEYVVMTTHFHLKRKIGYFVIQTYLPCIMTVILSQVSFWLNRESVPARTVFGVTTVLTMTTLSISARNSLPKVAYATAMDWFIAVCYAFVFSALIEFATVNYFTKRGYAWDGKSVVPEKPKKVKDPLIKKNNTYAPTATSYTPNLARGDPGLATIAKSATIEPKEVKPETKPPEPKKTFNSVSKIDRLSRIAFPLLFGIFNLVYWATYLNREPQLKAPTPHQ
Chain of Cannabinoid receptor 1 (P21554 whole entry): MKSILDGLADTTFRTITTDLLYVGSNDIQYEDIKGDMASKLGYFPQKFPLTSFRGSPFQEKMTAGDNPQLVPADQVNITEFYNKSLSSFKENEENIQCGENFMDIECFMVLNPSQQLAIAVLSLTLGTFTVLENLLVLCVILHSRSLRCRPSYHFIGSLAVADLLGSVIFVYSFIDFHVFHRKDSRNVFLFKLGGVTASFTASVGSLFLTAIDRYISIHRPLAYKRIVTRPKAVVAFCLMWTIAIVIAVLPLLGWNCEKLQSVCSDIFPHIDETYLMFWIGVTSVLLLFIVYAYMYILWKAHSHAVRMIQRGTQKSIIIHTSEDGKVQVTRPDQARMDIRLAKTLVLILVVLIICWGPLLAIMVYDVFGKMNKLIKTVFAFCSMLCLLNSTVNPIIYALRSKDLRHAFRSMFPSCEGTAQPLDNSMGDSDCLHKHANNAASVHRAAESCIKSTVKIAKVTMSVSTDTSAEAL

With `CC[C@@H]1C[C@]1(NC(=O)[C@@H]1C[C@@H]2CN1C(=O)[C@H](C(C)(C)C)NC(=O)OCC(C)(C)CCCCc1cccc3c1CN(C3)C(=O)O2)C(=O)NS(=O)(=O)C1CC1`, the AC50 in test [1] and in test [2] was above 30 µM each time.

Consider `CC(=O)NO` [ACETOHYDROXAMIC ACID], for which the AC50 in test [1] and in [2] was above 30 µM throughout.

For `CC(C)NC(=N)NC(=N)Nc1ccc(Cl)c(Cl)c1` [CHLORPROGUANIL], the AC50 in test [3], in test [4], in test [1], in test [2], in test [5] and in [6] was above 30 µM each time. Further, the AC50 in test [7] was above 30 µM.

With `C[N+](C)(C)CCOP(=O)(O)OP(=O)([O-])OC[C@H]1O[C@@H](n2ccc(N)nc2=O)[C@H](O)[C@@H]1O` [CITICOLINE], the AC50 in [3], in test [1], in test [2], in [5], in [6] and in [7] was above 30 µM each time.

On to `O=C(O)Cc1ccccc1Nc1c(Cl)cccc1Cl` [DICLOFENAC], for which the concentration at half-maximal activity (AC50) was above 30 µM in test [3]; above 10 µM in test [4]; above 10 µM in test [8]; above 3 µM in test [2]; above 10 µM in test [5]; above 30 µM in test [6]. Besides, the concentration at half-maximal activity (AC50) in test [7] is above 30 µM.

On to `CN[C@@H]1[C@H](O[C@H]2[C@H](O[C@H]3[C@H](O)[C@@H](O)[C@H](NC(=N)N)[C@@H](O)[C@@H]3NC(=N)N)O[C@@H](C)[C@]2(O)CO)O[C@@H](CO)[C@H](O)[C@H]1O` [DIHYDROSTREPTOMYCIN], for which the AC50 in test [1] and in test [2] was above 30 µM throughout.

`CC(C)C(=O)Oc1ccc(CO)cc1[C@H](CCN(C(C)C)C(C)C)c1ccccc1` [FESOTERODINE]: the AC50 in test [1] and in test [2] was above 30 µM throughout.

For `Cc1ccc(C)c(OCCCC(C)(C)C(=O)O)c1` [GEMFIBROZIL], the AC50 is above 30 µM in test [3]; above 10 µM in test [4]; above 30 µM in test [1]; above 10 µM in [8]; above 30 µM in test [2]; above 10 µM in test [5]. Moreover, the AC50 in test [6] and in test [7] was above 30 µM throughout.

On to `C#C[C@]1(O)C=C[C@H]2[C@@H]3CCC4=CC(=O)CC[C@@H]4[C@H]3CC[C@@]21CC` [GESTODENE], for which the AC50 was found to be 2.16 µM in test [1] and 0.003 µM in test [2].

With `COc1ccccc1OC1(C)OC(=O)c2ccccc2O1` (centres undefined) [GUAIMESAL], the AC50 in [9], in [1], in test [8] and in [2] was above 30 µM in each case.

On to `CCCCC(CC)CN1CN(CC(CC)CCCC)CC(C)(N)C1` (centres undefined) [HEXETIDINE], for which the AC50 in [1] and in test [2] was above 30 µM in each case.

Consider `COC(=O)[C@@H](N)Cc1ccc(O)c(O)c1` [MELEVODOPA], for which the AC50 in [1] and in test [2] was above 30 µM each time.

Take `C=CC(=O)Nc1cccc(Oc2nc(Nc3ccc(N4CCN(C)CC4)cc3)nc3ccsc23)c1` [OLMUTINIB]: the AC50 in [1] and in [2] was above 30 µM in each case.

For the molecule `CCCCC1C(=O)N(c2ccccc2)N(c2ccc(O)cc2)C1=O` (centres undefined) [OXYPHENBUTAZONE ANHYDROUS], the AC50 in test [1] and in test [2] was above 30 µM in each case.

On to `Nc1cccc2c1C(=O)N(C1CCC(=O)NC1=O)C2=O` (centres undefined) [POMALIDOMIDE], for which the half-maximal activity concentration (AC50) in test [1] and in test [2] was above 30 µM each time.

On to `CC[C@]12CCCN3CCc4c(n(c5ccccc45)[C@@](O)(C(=O)OC)C1)[C@@H]32` [VINCAMINE], for which the AC50 in test [1] and in test [2] was above 30 µM in each case.
